According to patent publication US20220127232A1, “HISTONE ACETYLTRANSFERASE MODULATORS AND COMPOSITIONS AND USES THEREOF” (The Trustees of Columbia University in the City of New York, priority 2019, published 2022):
Entries after “also recorded” stand apart in the source; their conditions may differ. Like-named read-outs stand apart in the source and are kept apart here.

Key:
[1] = Stability in human liver microsomes; type: in vitro ADME; details: for microsomal CLint at 1 μM / half-life at 1 μM: both sexes, human, liver microsomes, pH 7.4, human liver microsomes
Method: Some compounds were tested for stability in human liver microsomes as shown below in Table 2.
Mixed-gender human liver microsomes (Lot #1010420) were purchased from XenoTech. The reaction mixture, minus NADPH, was prepared as described below. The test article was added into the reaction mixture at a final concentration of 1 μM. The control compound, testosterone, was run simultaneously with the test article in a separate reaction. An aliquot of the reaction mixture (without cofactor) was equilibrated in a shaking water bath at 37° C. for 3 minutes. The reaction was initiated by the addition of the cofactor, and the mixture was incubated in a shaking water bath at 37° C. Aliquots (100 μL) were withdrawn at 0, 10, 20, 30, and 60 minutes. Test article and testosterone samples were immediately combined with 400 μL of ice-cold 50/50 acetonitrile (ACN)/H2O containing 0.1% formic acid and internal standard to terminate the reaction. The samples were then mixed and centrifuged to precipitate proteins. All samples were assayed by LC-MS/MS using electrospray ionization. Analytical conditions are outlined in Appendix 1. The peak area response ratio (PARR) to internal standard was compared to the PARR at time 0 to determine the percent remaining at each time point. Half-lives and clearance were calculated using GraphPad software, fitting to a single-phase exponential decay equation.
Liver Microsomes 0.5 mg/mL NADPH (cofactor) 1 mM
Potassium Phosphate, pH 7.4 100 mM
Intrinsic clearance (CLint) was calculated based on CLint=k/P, where k is the elimination constant and P is the protein concentration in the incubation.

[2] = system: hippocampal slices from WT mice; experiment: Long-term potentiation (LTP) in hippocampal slices perfused with oTau or oAβ; type: cell-based
Excerpt: Synaptic dysfunction is a major hallmark of AD (Histol Histopathol, 1995. 10(2): p. 509-19; herein incorporated by reference in its entirety). An aspect of the drug screening protocol can include a measurement of the effect of compounds onto synaptic function. Amyloid-beta (Aβ) is a toxic peptide that is thought to underlie subtle amnesic changes occurring at early stages of Alzheimer's disease. It impairs both memory and its electrophysiological surrogate, long-term potentiation (LTP). LTP can be examined because it is a type of synaptic plasticity thought to underlie learning and memory. RA010115 can rescue the Aβ-induced reduction of LTP, and other compounds can also be screened to identify those that can re-establish normal LTP. The compounds can be applied for 20 min. Controls can be performed on slices in the absence of Aβ, and mice treated with compound. Tau is another peptide that is involved in cell to cell communication, and impairs both memory and LTP in animal models of AD and other tauopathies. FIG. 26 is a graph showing that RA010115 rescues oligomeric Tau (oTau)- and oligomeric Aβ (o Aβ)-induced LTP deficits. LTP was impaired in hippocampal slices from WT mice perfused with oTau (50 nM) and oAβ (200 nM), whereas there was no impairment in slices treated with RA10115 or vehicle. LTP was restored in slices perfused with RA010115 and either oTau or oAβ. The horizontal solid bar represents oAβ and oTau perfusion while the horizontal dashed bar represents RA010115. The three arrows correspond to the theta-burst stimulation. […]

[3] = system: mice; experiment: Contextual fear memory; type: in vivo
Method: FIG. 28 is a graph showing that RA010115 rescues oTau- and oAβ-induced defects in contextual fear memory. There is statistical significance when comparing all groups during testing for contextual fear memory at 24 hrs after the electric shock (ANOVA among all groups: F(5, 57)=5.558 p=0.0003). […] The performance was not impaired when mice were treated with only RA010115 or vehicle.

COc1cccc(OC)c1C(=O)Nc1ccc(Cl)c(C(F)(F)F)c1 [RA010115]
microsomal CLint at 1 μM ([1]; calculated value printed in parentheses behind the bound, read-out: CLint, value in parentheses): 150 µL/min/mg | half-life at 1 μM ([1]; fitted value printed in parentheses behind the bound, read-out: Half-life, value in parentheses): 9.25 min | microsomal CLint at 1 μM ([1]; read-out: CLint): > 139 µL/min/mg | half-life at 1 μM ([1]; read-out: Half-life): < 10 min | % Remaining of Initial (n = 1) 0 min ([1]; human liver microsomes, test article 1 μM, 0 min): 100% | % Remaining of Initial (n = 1) 10 min ([1]; human liver microsomes, test article 1 μM, 10 min): 47.7% | % Remaining of Initial (n = 1) 20 min ([1]; human liver microsomes, test article 1 μM, 20 min): 21.1% | % Remaining of Initial (n = 1) 30 min ([1]; human liver microsomes, test article 1 μM, 30 min): 11.4% | % Remaining of Initial (n = 1) 60 min ([1]; human liver microsomes, test article 1 μM, 60 min): 2.59% | LTP in slices treated with compound alone ([2]; no oTau or oAβ): no impairment | oTau- and oAβ-induced LTP deficits ([2]; slices perfused with compound and either oTau (50 nM) or oAβ (200 nM)): restored; also recorded: rescues | oTau- and oAβ-induced defects in contextual fear memory (freezing) ([3]; 24 hrs after the electric shock): rescues | Contextual fear memory performance, compound alone ([3]; mice treated with only compound): not impaired
